The values that follow come from patent US9169259B2, “Imidazopyridazine compounds” (Hoffmann-La Roche Inc., priority 2011, dated 2015).

Counter-ions that a name gives are not always drawn.

The target in this assay is recombinant human SYK360-635 (Homo sapiens (Human), UniProt P43405). Briefly: SYK kinase assay (33P ATP filtration, IC50 of SYK inhibition). The assay is classed as biochemical. The conditions noted are these: truncated SYK aa 360-635 0.5 nM, ATP 20 μM, peptide 5 μM, 30° C. 15 min; read-out: ENZYME_FILTRATION_IC50. The method, then:
Determination of IC50 of Spleen Tyrosine Kinase (SYK) Inhibition:
SYK kinase assay is a standard kinase assay adapted to a 96 well plate format. This assay is performed in 96-well format for IC50 determination with […] which represented 10 half log dilutions and a 40 μL reaction volume. The assay measures the incorporation of radiolabeled ^33P γATP into an N-terminally biotinylated peptide substrate, derived from naturally occurring phosphoacceptor consensus sequence (Biotin-11aa DY*E). Phosphorylated products were detected upon termination of reactions with EDTA and the addition of Streptavidin coated beads.
Assay plates: 96-well MultiScreen 0.65 um filter plates (Millipore Cat. No.: MADVNOB10)
final concentration: 50 mM HEPES pH7.5
BSA: Bovine Serum Albumin Fraction V, fatty acid free (Roche Diagnostics GmbH, Cat. No. 9100221) diluted to a final concentration of 0.1%
Assay Dilution Buffer (ADB): 50 mM HEPES, 0.1 mM EGTA, 0.1 mM Na Vanadate, 0.1 mM β-glycerophosphate, 10 mM MgCl2, 1 mM DTT, 0.1% BSA, pH 7.5
Bead wash buffer: 10 g/L PBS (Phosphate buffered saline) with 2M NaCl+1% phosphoric acid.
DMSO and the mixture was incubated for 10 min at RT.
The kinase reaction was initiated by the addition of 10 μL 4× substrate cocktail containing the DYE peptide substrate [0 or 5 μM], ATP [20 μM] and ^33PγATP [2 μCi/r×n]. After incubation at 30° C. for 15 min, the reaction was terminated by the transfer of 25 μL of the reaction sample to a 96 well 0.65 μm Millipore MADVNOB membrane/plate containing 200 μL 5 mM EDTA and 20% Streptavidine coated beads in PBS.
After the last wash membrane/plates were transferred to an adaptor plate, heat dried for 15 min at 60° C., and 50 μL scintillation cocktail was added to each well and 4 h later the amount of radioactivity was counted in a top counter.

For `COC(=O)c1cccc(-c2cc(Nc3cccc(N4CCC(C(C)(C)C)C4)n3)c3nccn3n2)c1` (centres unmarked) [Example I-65, 3-{8-[6-(3-tert-Butyl-pyrrolidin-1-yl)-pyridin-2-ylamino]-imidazo[1,2-b]pyridazin-6-yl}-benzoic acid methyl ester], the IC50 is 1260 nM. In the case of `CC1CCCN1c1cccc(Nc2cc(-c3cccnc3)nn3ccnc23)n1` (centres unmarked) [Example I-78, [6-(2-Methyl-pyrrolidin-1-yl)-pyridin-2-yl]-(6-pyridin-3-yl-imidazo[1,2-b]pyridazin-8-yl)-amine], the IC50 amounted to 65.2 nM.

Consider `COc1ccc(Nc2cc(-c3ccc(C(=O)NCCc4ccn(C)c(=O)c4)cc3)nn3ccnc23)nc1OC` [Example I-33, 4-[8-(5,6-Dimethoxy-pyridin-2-ylamino)-imidazo[1,2-b]pyridazin-6-yl]-N-[2-(1-methyl-2-oxo-1,2-dihydro-pyridin-4-yl)-ethyl]-benzamide], for which the IC50 was 79 nM. As for `CCN(CC)CCOc1ccc(-c2cc(Nc3cccc(N4CCCC4C)n3)c3nccn3n2)cc1` (centres unmarked) [Example I-92, {6-[4-(2-Diethylamino-ethoxy)-phenyl]-imidazo[1,2-b]pyridazin-8-yl}-[6-(2-methyl-pyrrolidin-1-yl)-pyridin-2-yl]-amine], the IC50 is 60.6 nM. Turning to `CC1CCCN1c1cccc(Nc2cc(-c3ccc4[nH]ncc4c3)nn3ccnc23)n1` (centres unmarked) [Example I-37, [6-(1H-Indazol-5-yl)-imidazo[1,2-b]pyridazin-8-yl]-[6-(2-methyl-pyrrolidin-1-yl)-pyridin-2-yl]-amine], the IC50 amounted to 98.1 nM.

Consider `CC1CCCN1c1cccc(Nc2cc(-c3cccc(O)c3)nn3ccnc23)n1` (centres unmarked) [Example I-86, 3-{8-[6-(2-Methyl-pyrrolidin-1-yl)-pyridin-2-ylamino]-imidazo[1,2-b]pyridazin-6-yl}-phenol], for which the IC50 was 102 nM.

Consider `COCC1CCCN1c1cccc(Nc2cc(-c3ccccc3)nn3ccnc23)n1` (centres unmarked) [Example I-35, [6-(2-Methoxymethyl-pyrrolidin-1-yl)-pyridin-2-yl]-(6-phenyl-imidazo[1,2-b]pyridazin-8-yl)-amine hydrochloride], for which the IC50 worked out at 834 nM. To `CC1CCCN1c1cccc(Nc2cc(-c3cccc(OCCN4CCCCC4)c3)nn3ccnc23)n1` (centres unmarked) [Example I-87, [6-(2-Methyl-pyrrolidin-1-yl)-pyridin-2-yl]-{6-[3-(2-piperidin-1-yl-ethoxy)-phenyl]-imidazo[1,2-b]pyridazin-8-yl}-amine] belongs 210 nM. To `CC1CCCN1c1cccc(Nc2cc(-c3cccc(C(=O)NCCN(C)C)c3)nn3ccnc23)n1` (centres unmarked) [Example I-46, N-(2-Dimethylamino-ethyl)-3-{8-[6-(2-methyl-pyrrolidin-1-yl)-pyridin-2-ylamino]-imidazo[1,2-b]pyridazin-6-yl}-benzamide] belongs 141 nM; to `CC1CCCN1c1cccc(Nc2cc(-c3ccc(OCCN4CCOCC4)cc3)nn3ccnc23)n1` (centres unmarked) [Example I-90, [6-(2-Methyl-pyrrolidin-1-yl)-pyridin-2-yl]-{6-[4-(2-morpholin-4-yl-ethoxy)-phenyl]-imidazo[1,2-b]pyridazin-8-yl}-amine], 157 nM. On to `COc1ccc(-c2cc(Nc3cccc(N4CCCC4C)n3)c3nccn3n2)cc1OC` (centres unmarked) [Example I-62, [6-(3,4-Dimethoxy-phenyl)-imidazo[1,2-b]pyridazin-8-yl]-[6-(2-methyl-pyrrolidin-1-yl)-pyridin-2-yl]-amine], for which the IC50 stood at 306 nM.
